Values joined by “and” are separate entries in the source; they are usually repeats but may differ in a detail not shown here. Identical values can stand only once. Like-named read-outs stand apart in the source and are kept apart here. Blank lines part the entries; values can stand above or below the molecule they belong to.
Experiments:
[1] = tested on: HSV-1 (ACV resistant); assay: In-vitro activity, HSV-1 (ACV resistant) infected vero; format: cell-based; settings: Human alphaherpesvirus 1, Vero, read-out: IC50 (HSV-1 ACV resistant)
Method: (§1) The in-vitro activity for (HSV-1 infected Vero), (HSV-2 infected Vero) and (HSV-1 (ACV resistant) infected vero) was tested as outlined in WO2017/174640 and WO2019/068817. For comparison, the non-deuterated matched-pair to Example 1 of the present application has been tested, which is hereinafter designated as Comparative Example C7 and which corresponds to Example 7 of WO2017/174640.

[2] = tested on: HSV-2; assay: In-vitro activity, HSV-2 infected Vero; format: cell-based; settings: Human alphaherpesvirus 2; Vero cells
Method: as §1

[3] = tested on: HSV-1; assay: In-vitro activity, HSV-1 infected Vero; format: cell-based; settings: Human alphaherpesvirus 1; Vero cells
Method: as §1

[4] = Microsomal stability, human liver microsomes, conversion to hydroxylated metabolite; format: in vitro ADME; settings: 1st and 2nd replicate
Method: Example 1 and the non-deuterated matched pair (Comparative Example C7/Example 7 from WO2017/174640) were incubated using three different batches of human liver microsomes (HLM) for a period of 60 min. The conversion to the hydroxylated metabolite was monitored by LC-MS.

[5] = Brain exposure and brain-to-plasma ratio in mouse; format: in vivo; settings: C57BI/6N mouse; for behaviour and clinical signs after dosing: oral cassette dosing 10 mg/kg each; for Kp at 4 h: brain/plasma; for Kp at 4 h / concentration at 4 h: oral cassette 10 mg/kg
Method: The brain and plasma exposure for Example 6 as well as for Example 4/2 and for its non-deuterated matched-pair (Comparative Example C4/2/Example 7(—) from WO2017/174640) was asessed in 3 mice (strain C57BI/6N, weight 21-26 g) after oral cassette dosing with a dose of 10 mg/kg each after 4 h. The compounds were formulated in 5% DMSO and 95% aq. HPMC (0.5%). […] Plasma from the retrobulbar venous plexus was analyzed by LC-MS.

[6] = Additional microsomal stability, human microsomes, hydroxy metabolite formation; format: in vitro ADME; settings: human (mixed gender) microsomes, 60 min
Method: The formation of the hydroxy metabolites was quantified via peak area ratio towards the corresponding non-deuterated matched pair when incubating the samples in rat microsomes (SD rat, male) or human microsomes (mixed gender) for 60 min at Admescope. The peak signal (positive mode) was quantified with a Waters Acquity UPLC+Thermo Q-Exactive Focus Orbitrap MS on a Phenomenex Kinetex Biphenyl (2.1×50 mm, 1.7 μm particle size […]) column.

[7] = Pharmacokinetics in mouse; format: in vivo; settings: male C57BI/6N mouse; for % AUCextra / t1/2z / tz / AUC(0-inf) / AUC(0-t) / C0 / clearance / concentration at 24 h / Vd / Cmax / Tmax: cassette; for AUC(0-inf) / AUC(0-t) / C0 / clearance / concentration at 24 h / Vd / bioavailability / Cmax / Tmax: plasma; for concentration at 24 h: read-out: Cz; for Vd: read-out: Vz; for bioavailability: po 10 mg/kg vs iv 2 mg/kg
Method: Plasma from the retrobulbar venous plexus was analyzed by LC-MS. The obtained data obtained is as follows (NC=not calculable): […]

[8] = brain, read-out: mean brain conc. with SD
[9] = plasma, read-out: mean plasma conc. with SD

SMILES: [2H]C([2H])([2H])c1nc(N(C)C(=O)Cc2ccc(-c3cc(F)ccc3F)cc2)sc1S(C)(=N)=O (racemic) [Example 1, 2-(2′,5′-Difluoro-[1,1′-biphenyl]-4-yl)-N-methyl-N-(4-(methyl-d3)-5-(S-methyl-sulfonimidoyl)thiazol-2-yl)acetamide]
IC50 [1]: 0.025 to 0.125 µM | IC50 [2]: 0.025 to 0.125 µM | IC50 [3]: 0.025 to 0.125 µM | Parent [nM] 60 min ([4]; HLM batch 38292, 60 min): 928 nM and 1085 nM | Parent [nM] 60 min ([4]; HLM batch 5061002, 60 min): 1083 nM and 1058 nM | Parent [nM] 60 min ([4]; HLM batch 6029002, 60 min): 1231 nM and 1159 nM

SMILES: [2H]C([2H])([2H])Oc1cccc(-c2ccc(CC(=O)N(C)c3nc(C)c(S(N)(=O)=O)s3)cc2)c1 [Example 5/1]
IC50 [1]: 0.01 to 0.1 µM | IC50 [2]: 0.005 to 0.075 µM | IC50 [3]: 0.01 to 0.1 µM

SMILES: [2H]C([2H])([2H])c1nc(N(C)C(=O)Cc2ccc(-c3cc(F)ccc3F)cc2F)sc1S(N)(=O)=O [6/2]
IC50 [1]: 0.002 to 0.06 µM | IC50 [2]: 0.003 to 0.075 µM | IC50 [3]: 0.002 to 0.06 µM

SMILES: [2H]C([2H])([2H])c1nc(N(C)C(=O)Cc2ccc(-c3cc(F)ccc3F)cc2)sc1S(N)(=O)=O [Example 6, 2-(2′,5′-Difluoro-[1,1′-biphenyl]-4-yl)-N-methyl-N-(4-(methyl-d3)-5-sulfamoylthiazol-2-yl)acetamide]
behaviour and clinical signs after dosing [5]: no clinical signs observed | Kp at 4 h [5]: 0.78 | concentration at 4 h [5, 8]: 3.22 ± 1.91 µg/mL | concentration at 4 h [5, 9]: 4.13 ± 1.76 µg/mL | IC50 [1]: 0.002 to 0.06 µM | IC50 [2]: 0.002 to 0.06 µM | IC50 [3]: 0.002 to 0.06 µM | hydroxy metabolite peak area ratio [6]: BLQ

behaviour and clinical signs after dosing [5]: no clinical signs observed | Kp at 4 h [5]: 1.57 | concentration at 4 h [5, 8]: 5.61 ± 1.45 µg/mL | concentration at 4 h [5, 9]: 3.58 ± 0.726 µg/mL | % AUCextra ([7]; iv 2 mg/kg): 12.4% | t1/2z ([7]; iv 2 mg/kg): 7.7 h | tz ([7]; iv 2 mg/kg): 24 h | tz ([7]; po 10 mg/kg): 24 h | AUC(0-inf) ([7]; iv 2 mg/kg): 6.39 µg·h/mL | AUC(0-t) ([7]; iv 2 mg/kg): 5.6 µg·h/mL | C0 ([7]; iv 2 mg/kg): 0.0104 µg/mL | clearance ([7]; iv 2 mg/kg): 0.313 L/h/kg | concentration at 24 h ([7]; iv 2 mg/kg): 0.0715 µg/mL | Vd ([7]; iv 2 mg/kg): 3.47 L/kg | bioavailability [7]: 167% | AUC(0-t) ([7]; po 10 mg/kg): 46.6 µg·h/mL | Cmax ([7]; po 10 mg/kg): 2.96 µg/mL | Tmax ([7]; po 10 mg/kg): 4 h | concentration at 24 h ([7]; po 10 mg/kg): 1.26 µg/mL
SMILES: Cc1nc(N(C)C(=O)Cc2ccc(-c3cc(F)ccc3F)cc2)sc1[S@@](C)(=N)=O [Comparative Example C4/2, reference compound]

SMILES: Cc1nc(N(C)C(=O)Cc2ccc(-c3cc(F)ccc3F)cc2)sc1S(C)(=N)=O (racemic) [Comparative Example C7, reference compound]
IC50 [1]: 0.025 to 0.1 µM | IC50 [2]: 0.025 to 0.1 µM | IC50 [3]: 0.025 to 0.1 µM | Parent [nM] 60 min ([4]; HLM batch 38292, 60 min, listed as Comp. Example C7): 1053 nM and 1255 nM | Parent [nM] 60 min ([4]; HLM batch 5061002, 60 min, listed as Comp. Example C7): 1122 nM and 910 nM | Parent [nM] 60 min ([4]; HLM batch 6029002, 60 min, listed as Comp. Example C7): 937 nM and 973 nM

SMILES: [2H]C([2H])([2H])c1nc(N(C)C(=O)Cc2ccc(-c3cccc(F)c3)cc2F)sc1S(N)(=O)=O [Example 6/1]
IC50 [1]: 0.002 to 0.06 µM | IC50 [2]: 0.004 to 0.075 µM | IC50 [3]: 0.002 to 0.06 µM

SMILES: [2H]C([2H])([2H])Oc1ccccc1-c1ccc(CC(=O)N(C)c2nc(C)c(S(N)(=O)=O)s2)cc1 [5/2]
IC50 [1]: 0.01 to 0.1 µM | IC50 [2]: 0.03 to 0.15 µM | IC50 [3]: 0.01 to 0.1 µM

SMILES: [2H]C([2H])([2H])c1nc(N(C)C(=O)Cc2ccc(-c3cc(F)ccc3F)cc2)sc1[S@](C)(=N)=O (single isomer, unassigned) [Example 4/1]
IC50 [1]: 0.05 to 0.15 µM | IC50 [2]: 0.05 to 0.25 µM | IC50 [3]: 0.05 to 0.15 µM

SMILES: [2H]C([2H])([2H])c1nc(N(C)C(=O)Cc2ccc(-c3cc(F)ccc3F)cc2)sc1[S@@](C)(=N)=O (single isomer, unassigned) [Example 4/2]
improvement of plasma and brain exposure compared to the non-deuterated matched-pair ([5]; oral 10 mg/kg, after 4 h): over 50% | behaviour and clinical signs after dosing [5]: no clinical signs observed | Kp at 4 h [5]: 1.57 | concentration at 4 h [5, 8]: 8.61 ± 2.18 µg/mL | concentration at 4 h [5, 9]: 5.47 ± 1.32 µg/mL | IC50 [1]: 0.005 to 0.075 µM | IC50 [2]: 0.01 to 0.09 µM | IC50 [3]: 0.005 to 0.075 µM | % AUCextra ([7]; iv 2 mg/kg): 24.9% | t1/2z ([7]; iv 2 mg/kg): 11.3 h | tz ([7]; iv 2 mg/kg): 24 h | tz ([7]; po 10 mg/kg): 24 h | AUC(0-inf) ([7]; iv 2 mg/kg): 10.6 µg·h/mL | AUC(0-t) ([7]; iv 2 mg/kg): 8 µg·h/mL | C0 ([7]; iv 2 mg/kg): 0.0162 µg/mL | clearance ([7]; iv 2 mg/kg): 0.188 L/h/kg | concentration at 24 h ([7]; iv 2 mg/kg): 0.162 µg/mL | Vd ([7]; iv 2 mg/kg): 3.07 L/kg | bioavailability [7]: 201% | AUC(0-t) ([7]; po 10 mg/kg): 80.2 µg·h/mL | Cmax ([7]; po 10 mg/kg): 4.61 µg/mL | Tmax ([7]; po 10 mg/kg): 4 h | concentration at 24 h ([7]; po 10 mg/kg): 2.73 µg/mL

SMILES: [2H]c1c([2H])c([2H])c(-c2ccc(CC(=O)N(C)c3nc(C)c(S(N)(=O)=O)s3)cc2)c([2H])c1[2H] [Example 5, 2-([1,1′-Biphenyl]-4-yl-2′,3′,4′,5′,6′-d5)-N-methyl-N-(4-methyl-5-sulfamoyl-thiazol-2-yl)acetamide]
IC50 [1]: 0.001 to 0.05 µM | IC50 [2]: 0.025 to 0.125 µM | IC50 [3]: 0.001 to 0.05 µM

— US12552756B2, “Deuterated aminothiazole compounds as antiviral compounds” (priority 2020, dated 2026)
